Source: publication PMC4492635 (Drug Design, Development and Therapy, 2015)

Legend:
hHMGR = molecular target: T1, hHMGR (Homo sapiens, UniProt P04035); experiment: Enzymatic assay of recombinant hHMGR; format: biochemical; conditions: result in words, Figure 4
T1 sequence (P04035 450-883 limits assumed): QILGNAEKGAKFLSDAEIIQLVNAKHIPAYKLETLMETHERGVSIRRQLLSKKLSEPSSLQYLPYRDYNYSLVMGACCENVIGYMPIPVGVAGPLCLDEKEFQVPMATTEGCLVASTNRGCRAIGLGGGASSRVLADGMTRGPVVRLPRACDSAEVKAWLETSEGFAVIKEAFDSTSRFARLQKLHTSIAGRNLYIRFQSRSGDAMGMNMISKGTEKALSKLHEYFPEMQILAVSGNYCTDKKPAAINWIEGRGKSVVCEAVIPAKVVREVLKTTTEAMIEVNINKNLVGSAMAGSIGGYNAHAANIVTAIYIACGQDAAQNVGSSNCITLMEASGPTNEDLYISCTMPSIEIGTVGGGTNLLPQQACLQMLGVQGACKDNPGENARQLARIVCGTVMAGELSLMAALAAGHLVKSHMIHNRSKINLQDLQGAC

HepG2 cells = experiment: MTT assay, cellular toxicity on HepG2 cells; format: cell-based; conditions: 24 h treatment, result in words

| SMILES | inhibition of hHMGR activities (hHMGR) | cytotoxic effect (HepG2 cells) |
| --- | --- | --- |
| COc1cc(/C=C/C(=O)CC(=O)/C=C/c2ccc(O)c(OC)c2)ccc1O [Compound 3, (1E,6E)-1,7-bis(4-hydroxy-3-methoxyphenyl)-1,6-heptadiene-3,5-dione] | effectively inhibit |  |
| CCCCCCCCCCCCCCCCCCCCCCO [Compound 8, Docosan-1-ol] | effectively inhibit | milder cytotoxic effect |
| O=C(/C=C/c1ccc(O)c2oc(-c3ccc(O)c(O)c3)cc12)O[C@H](Cc1ccc(O)c(O)c1)C(=O)O [Compound 1, (2r)-3-(3,4-dihydroxyphenyl)-2-[(E)-3-[2-(3,4-dihydroxyphenyl)-7-hydroxy-1-benzofuran-4-yl]prop-2-enoyl] oxypropanoic acid] | effectively inhibit |  |
| Nc1nc(O)c2nc(CNc3ccc(C(=O)N[C@@H](CCC(=O)O)C(=O)O)cc3)cnc2n1 [Compound 10, (2S)-2-[(4-{[(2-amino-4-hydroxypteridin-6-yl)methyl]amino}phenyl) formamido] pentanedioic acid] | no inhibitory capability |  |
